Read-outs that look alike come from different tables or passages of the source.
Experiments:
COX-1 = COX-1 (Homo sapiens, UniProt P23219); assay: In vitro inhibition of COX-1 activity; conditions: read-out: COX-1 percent inhibition
Description: (§1) Percent inhibition mean values ±SD from at least three individual determinations are shown.

5-LO = molecular target: T1, 5-LO (Rattus norvegicus, UniProt P12527); assay: 5-LO inhibition by radioimmunoassay (RIA) in rat peritoneal PMNL; conditions: inhibitors at 'AM final concentration' [sic], mean ± SD
T1 sequence (P12527 1-673): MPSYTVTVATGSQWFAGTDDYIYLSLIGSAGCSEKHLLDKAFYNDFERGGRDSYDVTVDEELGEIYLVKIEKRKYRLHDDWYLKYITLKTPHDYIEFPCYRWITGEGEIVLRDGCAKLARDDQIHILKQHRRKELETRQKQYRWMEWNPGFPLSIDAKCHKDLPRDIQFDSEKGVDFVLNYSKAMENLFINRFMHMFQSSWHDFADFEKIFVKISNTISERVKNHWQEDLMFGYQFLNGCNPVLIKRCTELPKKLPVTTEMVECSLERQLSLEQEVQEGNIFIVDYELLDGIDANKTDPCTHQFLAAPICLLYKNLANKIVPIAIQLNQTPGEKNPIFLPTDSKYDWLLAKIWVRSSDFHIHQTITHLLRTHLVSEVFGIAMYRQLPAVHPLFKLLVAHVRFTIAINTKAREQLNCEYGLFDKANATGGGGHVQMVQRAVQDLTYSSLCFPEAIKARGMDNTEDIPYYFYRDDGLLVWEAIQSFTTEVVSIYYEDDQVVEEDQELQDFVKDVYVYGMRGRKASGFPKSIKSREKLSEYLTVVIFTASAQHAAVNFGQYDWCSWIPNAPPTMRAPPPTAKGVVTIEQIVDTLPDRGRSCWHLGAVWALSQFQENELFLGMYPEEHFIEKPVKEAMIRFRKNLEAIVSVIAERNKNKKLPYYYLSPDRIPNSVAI
Description: as §1

[1] = system: arachidonic acid-induced ear inflammation in mice; assay: Arachidonic acid-induced ear inflammation in mice (AAE test); assay type: in vivo; conditions: for change in vivo at 50 µg/ear / change in vivo at 100 µg/ear / change in vivo at 250 µg/ear: Mus musculus, mice, topical, read-out: % inhibition of AA-induced ear inflammation; for change in vivo at 50 µg/ear: 50 μg/ear; for change in vivo at 100 µg/ear: 100 μg/ear; for change in vivo at 250 µg/ear: 250 μg/ear
5-lipoxygenase (5-LO) = molecular target: T2, 5-lipoxygenase (5-LO) (Oryctolagus cuniculus, UniProt G1SNX0); assay: Radioisotopic assay of 5-LO activity (LTB4 formation from 14C-arachidonic acid) in rabbit peritoneal PMNL stimulated with A-23187; assay type: cell-based; conditions: for inhibition at 1 µM: rabbit peritoneal neutrophils (PMNL), mean ± s.d. of three experiments in duplicate, read-out: % Inhibition (percent inhibition of LTB4 formation); for in vitro 5-LO activity in words: peritoneal PMNL
T2 construct: Polymorphonuclear leukocytes (PMNLs) were purified from rabbits by glycogen-intraperitoneal elicited intraperitoneal recruitment; endogenous in cells; host or cells: rabbit peritoneal polymorphonuclear leukocytes (PMNL), glycogen-elicited
T2 sequence (G1SNX0 1-674): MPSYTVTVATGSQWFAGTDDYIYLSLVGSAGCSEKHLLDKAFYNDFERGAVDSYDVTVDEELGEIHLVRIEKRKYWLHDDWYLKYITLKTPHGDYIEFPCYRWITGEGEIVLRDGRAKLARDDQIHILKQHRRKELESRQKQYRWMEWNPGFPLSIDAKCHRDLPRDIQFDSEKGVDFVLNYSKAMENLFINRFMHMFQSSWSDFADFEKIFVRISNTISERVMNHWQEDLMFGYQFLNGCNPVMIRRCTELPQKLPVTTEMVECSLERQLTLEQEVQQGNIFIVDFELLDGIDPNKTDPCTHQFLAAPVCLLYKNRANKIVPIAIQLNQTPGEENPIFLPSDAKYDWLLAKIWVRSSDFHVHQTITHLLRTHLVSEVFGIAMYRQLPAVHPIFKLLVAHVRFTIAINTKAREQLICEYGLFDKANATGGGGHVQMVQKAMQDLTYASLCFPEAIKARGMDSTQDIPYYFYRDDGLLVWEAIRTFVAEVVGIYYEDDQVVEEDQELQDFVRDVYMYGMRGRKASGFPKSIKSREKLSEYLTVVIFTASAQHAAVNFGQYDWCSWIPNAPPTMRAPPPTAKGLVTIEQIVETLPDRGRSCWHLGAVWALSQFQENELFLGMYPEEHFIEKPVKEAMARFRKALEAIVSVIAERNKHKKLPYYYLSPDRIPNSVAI
Description: The 5-LO enzyme, which is found primarily in cells of myeloid origin such as polymorphonuclear leukocytes (“PMNL”), eosinophils, and macrophages, catalyzes the first step of the biochemical pathway in which arachadonic acid (“AA”) is,converted into LTA4. […] To test the inhibition of the quinone derivatives on the activity of 5-LO rabbit polymorphonuclear leucocytes (PMNLs) were used.
Polymorphonuclear leukocytes (PMNLs) were purified from rabbits by glycogen-intraperitoneal elicited intraperitoneal recruitment, as descrited in T. Yatabe et al., “Studies on 5-lipoxygenase inhibitors: I. Synthesis and 5-lipoxygenase inhibitory activity of novel hydroxanic acid derivatives,” chem. Pharm. Bull., vol. 46, pp. 966-972 (1998). An intraperitoneal injection of 300 mL of 0.1% (w/v) glycogen in sterile saline was administered 6 h before the rabbits were sacrificed by an intravascular injection of Nembutal. Peritoneal exudates were collected in 5 μM EGTA, and residual red cells were removed by lysis in ammonium chloride. These cell preparations were obtained with greater than 96% purity, as assessed by Wright-Giemsa staining and greater than 95% viability as assessed by Trypan blue exclusion.
PMNL cells in suspension were pre-incubated for 20 min at room temperature with ^14C-labeled arachadonic acid (AA) and diluted to 3000 cells μL^−1. Thereafter, the calcium ionophore A-23187 (1 μg/mL) was added to stimulate LTB4 production, and the cells further incubated for 15 min under stirring at 37° C. After incubation, the aqueous samples were successively shaken with a mixture of chloroform/methanol/formic acid (12:12:1) for 30 sec and then with chloroform for 10 sec. Organic phases containing LTB4, 5-HPETE (5-hydroperoxyeicosatetraenoic acid), diHPETEs (dihydroperoxyeicosatetraenoic acids), and prostaglandins (PGs) were pooled, evaporated to dryness under nitrogen and dissolved into a small amount of chloroform-MeOH (1:1). Separation of the 5-LO metabolites was performed by thin layer chromatography (TLC) on silica gel G plates developed in diethyl ether-hexane-acetic acid (60:40:1, v/v/v).
Bands containing 5-lipoxygenase (5-LO) metabolites were scraped from the TLC plates, and ^14C levels were quantitatively measured by liquid scintillation. 5-LO activity was an obtained from the amount of ^14C-arachidonic acid converted into LTB4 after the prelabeled PMNL cells were stimulated to produce LTB4 by the calcium ionophore as described above. IC50 was calculated as the concentration of the 5-LO antagonist that produced 50% inhibition of the metabolite conversion.
[…] IC50 values, calculated as theconcentration of test compound required to cause 50% inhibition of LTB4 formation, were also determined for some representative examples. […] These compounds, in general, correspond to compounds bearing the more lipophilic quinone fragments. […] See S. Ohkawa et al., “Dual Inhibition of Thromboxane A2 Synthetase and 5-Lipoxygenase with Scavenging Activity of Active Oxygen Species. Synthesis of a Novel Series of (3-Pyridylmethyl)benzoquinone Derivatives,” J. Med. Chem., vol. 34, pp. 267-276 (1991).

COX-2 = molecular target: T3, COX-2 (Homo sapiens, UniProt P35354); assay: In vitro inhibition of COX-2 activity; conditions: read-out: COX-2 percent inhibition
T3 sequence (P35354 18-604): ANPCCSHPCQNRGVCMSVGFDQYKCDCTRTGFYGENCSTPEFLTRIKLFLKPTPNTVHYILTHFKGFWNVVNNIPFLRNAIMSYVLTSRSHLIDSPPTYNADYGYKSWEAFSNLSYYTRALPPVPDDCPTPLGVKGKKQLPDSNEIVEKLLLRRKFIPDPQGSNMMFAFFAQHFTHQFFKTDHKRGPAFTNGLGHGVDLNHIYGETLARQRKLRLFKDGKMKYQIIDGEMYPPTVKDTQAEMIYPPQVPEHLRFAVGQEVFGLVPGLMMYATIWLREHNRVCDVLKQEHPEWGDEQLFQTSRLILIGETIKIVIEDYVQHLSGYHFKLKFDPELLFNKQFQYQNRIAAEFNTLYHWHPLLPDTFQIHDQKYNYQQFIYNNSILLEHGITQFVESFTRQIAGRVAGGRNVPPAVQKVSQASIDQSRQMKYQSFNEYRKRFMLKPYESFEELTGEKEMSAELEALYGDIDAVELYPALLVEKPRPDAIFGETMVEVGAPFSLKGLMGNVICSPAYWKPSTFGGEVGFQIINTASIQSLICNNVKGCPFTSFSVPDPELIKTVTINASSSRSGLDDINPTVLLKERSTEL
Description: as §1

[2] = measured on PMNL, read-out: IC50 (concentration causing 50% inhibition of LTB4 formation), in parentheses (converted)

Chain of COX-1 (P23219 24-599): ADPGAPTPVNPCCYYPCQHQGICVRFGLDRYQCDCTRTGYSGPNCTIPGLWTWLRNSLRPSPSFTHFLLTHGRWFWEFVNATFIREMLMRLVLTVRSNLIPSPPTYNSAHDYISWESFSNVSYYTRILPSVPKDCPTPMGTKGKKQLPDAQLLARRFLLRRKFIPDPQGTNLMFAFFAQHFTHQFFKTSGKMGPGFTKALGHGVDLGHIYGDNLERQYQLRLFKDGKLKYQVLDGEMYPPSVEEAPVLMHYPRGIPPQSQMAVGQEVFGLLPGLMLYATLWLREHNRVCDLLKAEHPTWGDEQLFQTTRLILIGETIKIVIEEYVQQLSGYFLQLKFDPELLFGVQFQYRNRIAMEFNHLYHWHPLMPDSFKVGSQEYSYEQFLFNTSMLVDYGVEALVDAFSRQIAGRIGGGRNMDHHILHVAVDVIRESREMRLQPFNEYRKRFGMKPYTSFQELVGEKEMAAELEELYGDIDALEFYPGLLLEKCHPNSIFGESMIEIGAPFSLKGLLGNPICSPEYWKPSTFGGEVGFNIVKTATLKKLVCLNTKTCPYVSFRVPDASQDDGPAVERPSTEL

SMILES | inhibition at 500 µM (COX-1) | 5-LO percent inhibition (5-LO) | % inhibition (AAE test) ([1]; 4c 100 mg (ear) as printed, alone or co-applied with Indomethacin) | change in vivo at 50 µg/ear [1] | change in vivo at 100 µg/ear [1] | change in vivo at 250 µg/ear [1] | melting point | IC50 (5-lipoxygenase (5-LO); PMNL, read-out: IC50 (5-LO, LTB4 formation)) | inhibition at 1 µM (5-lipoxygenase (5-LO)) | in vitro 5-LO activity in words (5-lipoxygenase (5-LO)) | inhibition at 500 µM (COX-2) | IC50 (5-lipoxygenase (5-LO); [2])
CC1=CC(=O)C(Nc2ccccn2)=CC1=O [Compound 4c, 2-Methyl-5-(pyridin-2-ylamino)-[1,4]benzoquinone] | 5.2 ± 6.2% | 85.8 ± 13.1% | 66% | -52.8 ± 6.4% | -63.7 ± 3.9% | -84.9 ± 2.4% | 137 to 139 °C | 18 nM | 94% | potent in vitro 5-LO inhibitors | 20.1 ± 0.7% | 
COC1=C(OC)C(=O)C(Nc2ccccn2)=C(C)C1=O [Compound 4e, 2,3-Dimethoxy-5-methyl-6-(pyridin-2-ylamino)-[1,4]benzoquinone] | 11.2 ± 2.7% | 95.4 ± 4.0% |  |  |  |  | 79 to 81 °C |  | 92 ± 4.7% | potent in vitro 5-LO inhibitors | 9.4 ± 0.4% | 155 nM
O=C1C=C(Nc2ccccn2)C(=O)c2ccccc21 [Compound 4i, 2-(Pyridin-2-ylamino)-[1,4]naphthoquinone] | 23.1 ± 4.6% | 86.2 ± 10.0% |  |  | -20.4 ± 2.1% |  | 205 to 206 °C |  | 100 ± 0.4% | potent in vitro 5-LO inhibitors | 16.5 ± 6.1% | 45 nM
O=C1C=C(Nc2ccc(Br)cn2)C(=O)c2ccccc21 [Compound 4l, 2-(5-Bromopyndin-2-ylamino)-[1,4]naphthoquinone] | 16.8 ± 1.4% | 85.5 ± 4.5% |  |  | -42.2 ± 3.1% | -30.6 ± 2.2% | 243 to 244 °C |  | 100 ± 0.5% | potent in vitro 5-LO inhibitors | 8 ± 3.6% | 142 nM
CC1=CC(=O)C(Nc2ncccn2)=CC1=O [Compound 4p, 2-Methyl-5-(pyrimidin-2-ylamino)-[1,4]benzoquinone] | 8.4 ± 6.4% | 90.4 ± 3.3% |  |  |  |  | 172 to 174 °C |  | 62 ± 1.7% |  | 0% | 
O=C1C=C(Nc2ncccn2)C(=O)c2ccccc21 [Compound 4r, 2-(Pyrimidin-2-ylamino)-[1,4]naphthoquinone] | 14.4 ± 1.3% | 96.4 ± 1.9% |  |  | -40 ± 1.9% | -29 ± 1.8% | 245 to 247 °C |  | 98 ± 1.1% | potent in vitro 5-LO inhibitors | 6.6 ± 14.9% | 165 nM
CC1=C(C)C(=O)C(Nc2nc(C)cc(C)n2)=CC1=O [Compound 4s, 2,3-Dirnethyl-5-(4,6-dimethylpyfimidin-2-ylamino)-[1,4]benzoquinone] | 8.4 ± 11.6% | 89.6 ± 2.3% |  | -17.3 ± 1.1% | -33.9 ± 3.9% |  | 188 to 189 °C |  | 96 ± 1.7% | potent in vitro 5-LO inhibitors | 3.3 ± 12.9% | 175 nM
Cc1cc(C)nc(NC2=CC(=O)c3ccccc3C2=O)n1 [Compound 4t, 2-(4,6-Dimethylpyrimidin-2-ylamino)-[1,4]naphthoquinone] | 8.2 ± 2.5% | 86.3 ± 3.0% |  | -3.3 ± 1.6% |  |  | 196 to 197 °C |  | 98 ± 1.3% | potent in vitro 5-LO inhibitors | 0% | 161 nM
